# Results: PMC12005787, “Synthetic Lethality of SHP2 and XIAP Suppresses Proliferation and Metastasis in KRAS‐mutant Nonsmall Cell Lung Cancer” (Advanced Science, 2025)
# Where two headings read alike, the source gives them in different places.
# What was measured:
# MDA-MB-231 cells = assay: Cell viability assay (CCK-8); assay type: cell-based; details: Homo sapiens
# Experimental: (§1) supplies are listed in Supplementary Table S5. […]
# (§2) KRAS-mutant and wild-type cells are listed in Supplementary Table S7.
# (§3) For the adherent cell viability assay, cells in the logarithmic growth phase were seeded in 96-well culture plates at a density of 5×103 well-1 and incubated overnight. Diluted compounds or DMSO were added, or specific treatments were incubated at 37 °C and 5% CO2 for 24 h or 48 h. Cell viability was determined using CCK-8 or CellLightTM Cell Viability Assay Kit, according to the manufacturer's protocol. The luminescence signals of the treated samples were normalized to those of the DMSO group. […]
# NCI-H1299 cells = assay: Cell viability assay (CCK-8); assay type: cell-based; details: Homo sapiens
# Experimental: as §1, §2, §3
# HCC44 cells = assay: Cell viability assay (CCK-8); assay type: cell-based; details: Homo sapiens
# Experimental: as §1, §2, §3
# HCT15 cells = assay: Cell viability assay (CCK-8); assay type: cell-based; details: Homo sapiens, HCT-15
# Experimental: as §1, §2, §3
# NCI-H1155 cells = assay: Cell viability assay (CCK-8); assay type: cell-based; details: Homo sapiens
# Experimental: as §1, §2, §3
# NCI-H2122 cells = assay: Cell viability assay (CCK-8); assay type: cell-based; details: Homo sapiens
# Experimental: as §1, §2, §3
# Lewis/Luc1 cells = assay: Cell viability assay (CCK-8); assay type: cell-based
# Experimental: as §1, §2, §3
# SW1417 cells = assay: Cell viability assay (CCK-8); assay type: cell-based; details: Homo sapiens
# Experimental: as §1, §2, §3
# ACHN cells = assay: Cell viability assay (CCK-8); assay type: cell-based; details: Homo sapiens
# Experimental: as §1, §2, §3
# HeLa cells = assay: Cell viability assay (CCK-8); assay type: cell-based; details: Homo sapiens
# Experimental: as §1, §2, §3
# NCI-H1975 cells = assay: Cell viability assay (CCK-8); assay type: cell-based; details: Homo sapiens, NCI-H1975, 24 h, NCI-H1975, RAS-wild type, EGFR L858R/T790M
# Experimental: as §1, §2, §3
# A549 cells = assay: Cell viability assay (CCK-8); assay type: cell-based; details: Homo sapiens
# Experimental: as §1, §2, §3
# HCC827 cells = assay: Cell viability assay (CCK-8); assay type: cell-based; details: Homo sapiens; HCC827, RAS-wild type, 24 h
# Experimental: supplies are listed in Supplementary Table S5. The relevant reagents for protein extraction from Escherichia coli are listed in Supplementary Table S6. Inhibitory effects of embelin on KRAS-mutant and wild-type cells are listed in Supplementary Table S7.
# as §3
# NCI‐H2122 and A549 cells = assay: Intracellular ATP assay; assay type: cell-based, human; details: monolayer 24 h and 3D culture 48 h
# Experimental: as §1
# For the adherent cell viability assay, cells in the logarithmic growth phase were seeded in 96-well culture plates at a density of 5×103 well-1 and incubated overnight. Diluted compounds or DMSO were added, or specific treatments were incubated at 37 °C and 5% CO2 for 24 h or 48 h. Cell viability was determined using CCK-8 or CellLightTM Cell Viability Assay Kit, according to the manufacturer's protocol. The luminescence signals of the treated samples were normalized to those of the DMSO group.
# For spherical cell viability assays, cells in the logarithmic growth phase were inoculated ata density of 4×10^3 well-1 into 96-well spherical cell microplates and incubated at 37 °C, 5% CO2 for 24 h or 48 h. Cell viability was measured using the CellTiter-Glo® Luminescent Cell Viability 3D Cell Viability Assay Kit, according to the manufacturer’s protocol. The remaining steps were the same as those described above. […]
# NCI-H1693 cells = assay: Cell viability assay (CCK-8); assay type: cell-based; details: Homo sapiens
# Experimental: as §2, §3
# NCI-H1915 cells = assay: Cell viability assay (CCK-8); assay type: cell-based
# Experimental: as §2, §3
# NCI-H838 cells = assay: Cell viability assay (CCK-8); assay type: cell-based; details: Homo sapiens
# Experimental: as §2, §3
# SNU-C2A cells = assay: Cell viability assay (CCK-8); assay type: cell-based
# Experimental: as §2, §3
# NCI-H1944 cells = assay: Cell viability assay (CCK-8); assay type: cell-based; details: Homo sapiens
# Experimental: as §2, §3
# SW1116 cells = assay: Cell viability assay (CCK-8); assay type: cell-based; details: Homo sapiens, SW 1116
# Experimental: as §2, §3
# HCT116 cells = assay: Cell viability assay (CCK-8); assay type: cell-based; details: Homo sapiens, HCT-116
# Experimental: as §2, §3
# NCI-H1755 cells = assay: Cell viability assay (CCK-8); assay type: cell-based; details: Homo sapiens
# Experimental: as §2, §3
# NCI-H358 cells = assay: Cell viability assay (CCK-8); assay type: cell-based; details: Homo sapiens
# Experimental: as §2, §3
smiles,measurement,setting,value
CCCCCCCCCCCC1=C(O)C(=O)C=C(O)C1=O [Embelin],IC50,"MDA-MB-231 cells; MDA-MB-231, 48 h, read-out: IC50 at 48 h",11.5 ± 0.7 µM
same,IC50,"MDA-MB-231 cells; MDA-MB-231, KRAS G13D, 24 h, read-out: IC50 at 24 h",13.6 ± 0.2 µM
same,IC50,"NCI-H1299 cells; NCI-H1299, 48 h, read-out: IC50 at 48 h",13.1 ± 0.6 µM
same,IC50,"NCI-H1299 cells; NCI-H1299, NRAS, 24 h, read-out: IC50 at 24 h",19.6 ± 1 µM
same,IC50,"HCC44 cells; HCC44, 48 h, read-out: IC50 at 48 h",6.52 ± 0.4 µM
same,IC50,"HCC44 cells; HCC44, KRAS G12C, 24 h, read-out: IC50 at 24 h",27.3 ± 0.44 µM
same,IC50,"HCT15 cells; HCT15, 48 h, read-out: IC50 at 48 h",9.95 ± 0.38 µM
same,IC50,"HCT15 cells; HCT15, KRAS G13D, 24 h, read-out: IC50 at 24 h",12.8 ± 0.43 µM
same,IC50,"NCI-H1155 cells; NCI-H1155, 48 h, read-out: IC50 at 48 h",7.07 ± 0.45 µM
same,IC50,"NCI-H1155 cells; NCI-H1155, KRAS Q61H, 24 h, read-out: IC50 at 24 h",16.1 ± 0.36 µM
same,IC50,"NCI-H2122 cells; NCI-H2122, 48 h, read-out: IC50 at 48 h",4.03 ± 0.1 µM
same,IC50,"NCI-H2122 cells; NCI-H2122, KRAS G12C, 24 h, read-out: IC50 at 24 h",4.9 ± 0.1 µM
same,IC50,"Lewis/Luc1 cells; Lewis/Luc1, 48 h, read-out: IC50 at 48 h",18.2 ± 0.9 µM
same,IC50,"Lewis/Luc1 cells; Lewis/Luc1, RAS-wild type, 24 h, read-out: IC50 at 24 h",20.6 ± 0.6 µM
same,IC50,"SW1417 cells; SW1417, 48 h, read-out: IC50 at 48 h",14.9 ± 0.34 µM
same,IC50,"SW1417 cells; SW1417, RAS-wild type, 24 h, read-out: IC50 at 24 h",65.39 ± 0.36 µM
same,IC50,"ACHN cells; 48 h, read-out: IC50 at 48 h",10.3 ± 0.7 µM
same,IC50,"ACHN cells; HRAS, 24 h, read-out: IC50 at 24 h",27.4 ± 0.3 µM
same,IC50,"HeLa cells; 48 h, read-out: IC50 at 48 h",13.4 ± 0.6 µM
same,IC50,"HeLa cells; RAS-wild type, 24 h, read-out: IC50 at 24 h",16.5 ± 0.2 µM
same,IC50,NCI-H1975 cells,7.4 ± 0.83 µM
same,IC50,"A549 cells; A549, 48 h, read-out: IC50 at 48 h",6.5 ± 0.9 µM
same,IC50,"A549 cells; A549, KRAS G12S, 24 h, read-out: IC50 at 24 h",7.9 µM
same,IC50,HCC827 cells,4.95 ± 0.28 µM
same,effect on intracellular ATP,NCI‐H2122 and A549 cells,significantly inhibited ATP release
same,IC50,"NCI-H1693 cells; NCI-H1693, 48 h, read-out: IC50 at 48 h",16.2 ± 0.37 µM
same,IC50,"NCI-H1693 cells; NCI-H1693, RAS-wild type, 24 h, read-out: IC50 at 24 h",42.57 ± 0.34 µM
same,IC50,"NCI-H1915 cells; NCI-H1915, 48 h, read-out: IC50 at 48 h",11.4 ± 0.39 µM
same,IC50,"NCI-H1915 cells; NCI-H1915, HRAS, 24 h, read-out: IC50 at 24 h",60.6 ± 0.41 µM
same,IC50,"NCI-H838 cells; NCI-H838, 48 h, read-out: IC50 at 48 h",10.5 ± 0.44 µM
same,IC50,"NCI-H838 cells; NCI-H838, RAS-wild type, 24 h, read-out: IC50 at 24 h",39.79 ± 0.27 µM
same,IC50,"SNU-C2A cells; 48 h, read-out: IC50 at 48 h",8.73 ± 0.43 µM
same,IC50,"SNU-C2A cells; KRAS G12D, 24 h, read-out: IC50 at 24 h",22.4 ± 0.5 µM
same,IC50,"NCI-H1944 cells; NCI-H1944, 48 h, read-out: IC50 at 48 h",21.6 ± 0.9 µM
same,IC50,"NCI-H1944 cells; NCI-H1944, KRAS G13D, 24 h, read-out: IC50 at 24 h",31 ± 0.2 µM
same,IC50,"SW1116 cells; SW1116, 48 h, read-out: IC50 at 48 h",7 ± 0.35 µM
same,IC50,"SW1116 cells; SW1116, KRAS G12A, 24 h, read-out: IC50 at 24 h",19.5 ± 0.29 µM
same,IC50,"HCT116 cells; HCT116, 48 h, read-out: IC50 at 48 h",9.6 ± 0.4 µM
same,IC50,"HCT116 cells; HCT116, KRAS G13D, 24 h, read-out: IC50 at 24 h",18.2 ± 0.9 µM
same,IC50,"NCI-H1755 cells; NCI-H1755, 48 h, read-out: IC50 at 48 h",14.2 ± 0.27 µM
same,IC50,"NCI-H1755 cells; NCI-H1755, RAS-wild type, 24 h, read-out: IC50 at 24 h",49.4 ± 0.32 µM
same,IC50,"NCI-H358 cells; NCI-H358, 48 h, read-out: IC50 at 48 h",9.2 ± 0.3 µM
same,IC50,"NCI-H358 cells; NCI-H358, KRAS G12C, 24 h, read-out: IC50 at 24 h",12.2 ± 0.4 µM
